How the values were obtained:
CRBN/DDB1 = CRBN/DDB1 (Homo sapiens (Human), UniProt Q96SW2); test: IC50 measurements for binding to CRBN/DDB1 (HTRF); conditions: His tagged CRBN+DDB, Cy5-labeled Thalidomide probe, one hour
Procedure, shortened: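 HTRF competition binding with 2 nM His-tagged CRBN-DDB1 complex, 60 nM Cy5-thalidomide probe and 0.4 nM anti-His Tb cryptate in 50 mM HEPES pH 7.5, 1 mM TCEP, 0.01% Brij-35, 50 mM NaCl, 0.1% BSA. Read after 1 h at room temperature; IC50 from four-parameter dose-response fit.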

IKZF2 = IKZF2 (Homo sapiens (Human), UniProt Q96SW2+Q9UKS7); test: In vitro IKZF2 HiBit Assay (HEK293T Flp-in-HiBiT cells); type: cell-based; conditions: HEK293T Flp-in-HiBiT cells, 6 hrs incubation; for DC50: read-out: IKZF2 HiBit DC50; for Dmax: HEK-293T, read-out: IKZF2 HiBit Dmax (%)
Sequence of IKZF2 (Q9UKS7 whole entry): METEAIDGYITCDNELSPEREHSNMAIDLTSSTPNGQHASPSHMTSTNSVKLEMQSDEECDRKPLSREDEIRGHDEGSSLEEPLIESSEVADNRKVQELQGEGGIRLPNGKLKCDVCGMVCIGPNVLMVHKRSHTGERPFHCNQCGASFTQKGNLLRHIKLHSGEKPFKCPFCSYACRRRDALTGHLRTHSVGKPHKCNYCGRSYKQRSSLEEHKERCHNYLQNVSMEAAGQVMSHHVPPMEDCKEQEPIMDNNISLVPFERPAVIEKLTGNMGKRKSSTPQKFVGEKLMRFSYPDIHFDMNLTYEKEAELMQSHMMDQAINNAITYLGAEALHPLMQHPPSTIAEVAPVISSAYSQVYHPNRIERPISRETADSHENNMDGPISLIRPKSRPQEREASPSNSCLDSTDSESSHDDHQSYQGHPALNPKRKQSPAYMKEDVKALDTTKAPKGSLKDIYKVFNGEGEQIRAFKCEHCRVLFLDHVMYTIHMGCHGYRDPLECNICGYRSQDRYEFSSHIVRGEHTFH
Sequence of IKZF2 (Q96SW2 whole entry): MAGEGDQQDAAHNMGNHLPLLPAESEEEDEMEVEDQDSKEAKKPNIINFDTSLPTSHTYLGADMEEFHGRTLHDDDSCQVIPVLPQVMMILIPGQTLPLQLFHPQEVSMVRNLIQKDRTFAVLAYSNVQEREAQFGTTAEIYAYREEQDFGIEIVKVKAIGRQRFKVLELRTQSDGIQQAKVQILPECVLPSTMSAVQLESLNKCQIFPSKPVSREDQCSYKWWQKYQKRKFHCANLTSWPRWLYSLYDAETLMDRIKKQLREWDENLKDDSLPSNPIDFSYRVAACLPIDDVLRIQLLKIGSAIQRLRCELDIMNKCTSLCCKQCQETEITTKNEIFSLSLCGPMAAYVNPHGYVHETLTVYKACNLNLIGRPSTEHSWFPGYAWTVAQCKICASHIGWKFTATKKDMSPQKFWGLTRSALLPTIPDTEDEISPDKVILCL
Sequence of IKZF2 (Q16531 2-1140 partner): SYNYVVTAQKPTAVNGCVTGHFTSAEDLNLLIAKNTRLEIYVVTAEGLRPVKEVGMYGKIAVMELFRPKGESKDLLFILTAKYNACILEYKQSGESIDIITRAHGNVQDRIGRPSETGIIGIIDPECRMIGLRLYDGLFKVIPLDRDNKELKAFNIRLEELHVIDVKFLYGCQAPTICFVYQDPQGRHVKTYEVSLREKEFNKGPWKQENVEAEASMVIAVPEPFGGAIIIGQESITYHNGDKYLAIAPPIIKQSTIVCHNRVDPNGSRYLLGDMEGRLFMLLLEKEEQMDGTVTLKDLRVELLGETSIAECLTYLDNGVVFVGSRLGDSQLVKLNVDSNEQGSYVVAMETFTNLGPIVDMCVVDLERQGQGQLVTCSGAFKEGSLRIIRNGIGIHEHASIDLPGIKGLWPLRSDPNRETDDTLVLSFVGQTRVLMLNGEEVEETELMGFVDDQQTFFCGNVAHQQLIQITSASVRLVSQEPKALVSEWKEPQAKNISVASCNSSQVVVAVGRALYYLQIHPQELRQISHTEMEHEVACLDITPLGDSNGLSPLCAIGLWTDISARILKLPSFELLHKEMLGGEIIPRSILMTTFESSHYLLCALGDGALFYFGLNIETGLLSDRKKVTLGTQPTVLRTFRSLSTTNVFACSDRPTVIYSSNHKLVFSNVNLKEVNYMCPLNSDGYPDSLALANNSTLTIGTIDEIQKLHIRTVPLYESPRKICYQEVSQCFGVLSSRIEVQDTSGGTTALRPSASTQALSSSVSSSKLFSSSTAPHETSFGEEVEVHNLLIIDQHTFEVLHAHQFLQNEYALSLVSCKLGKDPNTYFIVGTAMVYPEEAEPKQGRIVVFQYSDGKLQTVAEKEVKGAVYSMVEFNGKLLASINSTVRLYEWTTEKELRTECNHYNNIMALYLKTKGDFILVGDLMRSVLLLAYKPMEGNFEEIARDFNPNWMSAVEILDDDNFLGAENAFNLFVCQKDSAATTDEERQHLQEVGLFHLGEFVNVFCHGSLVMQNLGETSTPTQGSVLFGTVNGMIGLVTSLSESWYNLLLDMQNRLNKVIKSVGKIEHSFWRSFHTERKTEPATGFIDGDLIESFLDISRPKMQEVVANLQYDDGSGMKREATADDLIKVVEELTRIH
Procedure, shortened: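 HEK293T Flp-in cells carrying an endogenous N-terminal HiBiT tag on IKZF2 were exposed to compound for 6 h at 0.1% DMSO. The dilution series was 11 doses at 3-fold, diluted from 1 mM. Nano-Glo HiBiT lytic luminescence, normalized to DMSO, gave DC50 for 50% degradation and Dmax across the concentration range, both reported in letter bins.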

IKZF1 = IKZF1 (Homo sapiens (Human), UniProt Q13422+Q96SW2); test: In vitro IKZF1 HiBit Assay (HEK293T Flp-in-HiBiT-IKZF1 stable cell line); type: cell-based; conditions: HEK293T Flp-in-HiBiT-IKZF1 stable cell line, 6 hrs incubation; for DC50: read-out: IKZF1 HiBit DC50; for Dmax: HEK-293T, read-out: IKZF1 HiBit Dmax (%)
Sequence of IKZF1 (Q13422 whole entry): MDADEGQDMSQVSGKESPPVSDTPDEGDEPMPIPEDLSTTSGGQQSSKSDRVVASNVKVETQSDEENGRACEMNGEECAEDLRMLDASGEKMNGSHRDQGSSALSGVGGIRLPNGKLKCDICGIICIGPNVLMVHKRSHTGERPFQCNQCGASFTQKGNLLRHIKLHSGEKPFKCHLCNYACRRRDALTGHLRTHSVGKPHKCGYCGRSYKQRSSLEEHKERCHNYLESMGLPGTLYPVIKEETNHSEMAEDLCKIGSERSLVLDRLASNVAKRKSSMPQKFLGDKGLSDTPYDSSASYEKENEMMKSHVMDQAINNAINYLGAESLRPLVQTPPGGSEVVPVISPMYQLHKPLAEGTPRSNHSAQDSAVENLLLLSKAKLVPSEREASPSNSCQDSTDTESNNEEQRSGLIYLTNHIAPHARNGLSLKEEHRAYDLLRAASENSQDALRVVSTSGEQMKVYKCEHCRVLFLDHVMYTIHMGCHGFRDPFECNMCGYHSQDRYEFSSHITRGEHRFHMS
Sequence of IKZF1 (Q96SW2 whole entry): as the sequence (Q96SW2 whole entry) above
Sequence of IKZF1 (Q16531 2-1140 partner): as the sequence (Q16531 2-1140 partner) above
Procedure, shortened: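 HEK293T Flp-in cells carrying N-terminal HiBiT-tagged IKZF1 were exposed to compound (0.1% DMSO) for 6 h at 3000 cells/well. HiBiT luminescence was read after lytic LgBiT detection. DC50 and Dmax were taken from DMSO-normalized dose-response curves.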

Sequence of CRBN/DDB1 (Q96SW2 whole entry, species assumed): as the sequence (Q96SW2 whole entry) above
Sequence of CRBN/DDB1 (Q16531 whole entry partner, species assumed): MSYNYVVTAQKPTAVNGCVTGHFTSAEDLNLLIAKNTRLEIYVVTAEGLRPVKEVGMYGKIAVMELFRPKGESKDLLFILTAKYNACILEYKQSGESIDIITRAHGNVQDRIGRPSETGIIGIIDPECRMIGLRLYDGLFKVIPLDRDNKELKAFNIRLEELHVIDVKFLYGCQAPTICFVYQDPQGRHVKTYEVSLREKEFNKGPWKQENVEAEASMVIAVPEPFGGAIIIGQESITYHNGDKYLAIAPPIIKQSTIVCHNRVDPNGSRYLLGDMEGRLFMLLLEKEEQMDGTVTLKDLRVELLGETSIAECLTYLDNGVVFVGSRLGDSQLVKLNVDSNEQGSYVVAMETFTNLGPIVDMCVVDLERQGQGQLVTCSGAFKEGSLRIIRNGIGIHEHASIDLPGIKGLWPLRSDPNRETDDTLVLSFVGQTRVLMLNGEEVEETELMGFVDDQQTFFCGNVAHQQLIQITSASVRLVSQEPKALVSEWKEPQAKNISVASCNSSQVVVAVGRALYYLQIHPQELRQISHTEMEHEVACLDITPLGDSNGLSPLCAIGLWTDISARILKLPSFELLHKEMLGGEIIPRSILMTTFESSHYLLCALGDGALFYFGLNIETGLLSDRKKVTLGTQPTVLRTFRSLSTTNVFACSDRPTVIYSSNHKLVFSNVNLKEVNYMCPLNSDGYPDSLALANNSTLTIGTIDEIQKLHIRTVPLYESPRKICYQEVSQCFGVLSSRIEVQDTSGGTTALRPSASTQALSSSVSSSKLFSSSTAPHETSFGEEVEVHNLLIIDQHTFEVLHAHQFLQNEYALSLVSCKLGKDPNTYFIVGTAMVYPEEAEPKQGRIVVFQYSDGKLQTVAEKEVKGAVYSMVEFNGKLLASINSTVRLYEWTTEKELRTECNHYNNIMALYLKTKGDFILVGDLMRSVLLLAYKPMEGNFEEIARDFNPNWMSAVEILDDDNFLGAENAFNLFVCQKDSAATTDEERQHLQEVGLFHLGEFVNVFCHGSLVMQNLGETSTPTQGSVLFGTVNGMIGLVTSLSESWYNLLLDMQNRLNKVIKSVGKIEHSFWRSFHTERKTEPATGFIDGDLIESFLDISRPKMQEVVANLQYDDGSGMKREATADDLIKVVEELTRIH

Row | Compound | IC50 (CRBN/DDB1) [nM] | DC50 (IKZF2) [nM] | Dmax (IKZF2) [%] | DC50 (IKZF1) [nM] | Dmax (IKZF1) [%]
1 | O=C1CCC(N2Cc3cc(-c4cc(CN5CCCC5)c5[nH]ccc5n4)ccc3C2=O)C(=O)N1 (stereo not shown) [Example 76, 3-(1-oxo-5-(7-(pyrrolidin-1-ylmethyl)-1H-pyrrolo[3,2-b]pyridin-5-yl)isoindolin-2-yl) piperidine-2,6-dione] | 1000 to 5000 | < 1 | > 80 | > 10000 | 20 to 40
2 | O=C1CCC(N2Cc3cc(-c4cc(CN5CCCC5)c5c(ccn5CCCO)n4)ccc3C2=O)C(=O)N1 (stereo not shown) [Example 173, 3-(5-(1-(3-hydroxypropyl)-7-(pyrrolidin-1-ylmethyl)-1H-pyrrolo[3,2-b]pyridin-5-yl)-1-oxoisoindolin-2-yl) piperidine-2,6-dione] | 1000 to 5000 | 10 to 100 | 60 to 80 | 100 to 1000 | 20 to 40
3 | O=C1CCC(N2Cc3cc(-c4cc(CN5CCCC5)c5ccn(C6CCCC6)c5n4)ccc3C2=O)C(=O)N1 (stereo not shown) [Example 154, 3-(5-(1-cyclopentyl-4-(pyrrolidin-1-ylmethyl)-1H-pyrrolo[2,3-b]pyridin-6-yl)-1-oxoisoindolin-2-yl) piperidine-2,6-dione] | 500 to 1000 | 1 to 10 | 60 to 80 | > 10000 | < 20
4 | Cn1ccc2c(O[C@@H]3CCNC3)cc(-c3ccc4c(c3)CN([C@H]3CCC(=O)NC3=O)C4=O)nc21 [Example 219, (S)-3-(5-(1-methyl-4-(((R)-pyrrolidin-3-yl)oxy)-1H-pyrrolo[2,3-b]pyridin-6-yl)-1-oxoisoindolin-2-yl) piperidine-2,6-dione] | 1000 to 5000 | 10 to 100 | 40 to 60 | 100 to 1000 | 20 to 40
5 | O=C1CCC(N2Cc3cc(-c4cc(CN5CCC6(CC5)COC6)c5ccn(C6COC6)c5n4)ccc3C2=O)C(=O)N1 (stereo not shown) [Example 188, 3-(5-(4-((2-oxa-7-azaspiro[3.5]nonan-7-yl)methyl)-1-(oxetan-3-yl)-1H-pyrrolo[2,3-b]pyridin-6-yl)-1-oxoisoindolin-2-yl) piperidine-2,6-dione] | 500 to 1000 | 1 to 10 | 60 to 80 | > 10000 | < 20
6 | CN1CC(n2ccc3c(CN4CCCC4)cc(-c4ccc5c(c4)CN(C4CCC(=O)NC4=O)C5=O)nc32)C1 (stereo not shown) [Example 169, 3-(5-(1-(1-methylazetidin-3-yl)-4-(pyrrolidin-1-ylmethyl)-1H-pyrrolo[2,3-b]pyridin-6-yl)-1-oxoisoindolin-2-yl) piperidine-2,6-dione] | < 100 | 1 to 10 | > 80 | 10 to 100 | 40 to 60
7 | Cn1ccc2c(CN3CCC(C(F)(F)F)CC3)cc(-c3ccc4c(c3)CN(C3CCC(=O)NC3=O)C4=O)nc21 (stereo not shown) [Example 90, 3-(5-(1-methyl-4-((4-(trifluoromethyl)piperidin-1-yl)methyl)-1H-pyrrolo[2,3-b]pyridin-6-yl)-1-oxoisoindolin-2-yl) piperidine-2,6-dione] | 100 to 500 | 1 to 10 | > 80 | 10 to 100 | 20 to 40
8 | Cn1ccc2c(CN3CCC(CO)C3)cc(-c3ccc4c(c3)CN(C3CCC(=O)NC3=O)C4=O)nc21 (stereo not shown) [Example 96, 3-(5-(4-((3-(hydroxymethyl)pyrrolidin-1-yl)methyl)-1-methyl-1H-pyrrolo[2,3-b]pyridin-6-yl)-1-oxoisoindolin-2-yl) piperidine-2,6-dione] | 100 to 500 | 1 to 10 | > 80 | 10 to 100 | 20 to 40
9 | O=C1CCC(N2Cc3cc(-c4cc(CN5CCC(O)CC5)c5cc[nH]c5n4)ccc3C2=O)C(=O)N1 (stereo not shown) [Example 125, 3-(5-(4-((4-hydroxypiperidin-1-yl)methyl)-1H-pyrrolo[2,3-b]pyridin-6-yl)-1-oxoisoindolin-2-yl) piperidine-2,6-dione] | 100 to 500 | 10 to 100 | > 80 | 100 to 1000 | 20 to 40
10 | CC1CCN(Cc2cc(-c3ccc4c(c3)CN(C3CCC(=O)NC3=O)C4=O)nc3c2ccn3C)CC1 (stereo not shown) [Example 81, 3-(5-(1-methyl-4-((4-methylpiperidin-1-yl)methyl)-1H-pyrrolo[2,3-b]pyridin-6-yl)-1-oxoisoindolin-2-yl) piperidine-2,6-dione] | 5000 to 10000 | < 1 | > 80 | 10 to 100 | 40 to 60
11 | Nc1n[nH]c2c(CN3CC(O)C3)cc(-c3ccc4c(c3)CN(C3CCC(=O)NC3=O)C4=O)nc12 (stereo not shown) [Example 213, 3-(5-(3-amino-7-((3-hydroxyazetidin-1-yl)methyl)-1H-pyrazolo[4,3-b]pyridin-5-yl)-1-oxoisoindolin-2-yl) piperidine-2,6-dione] | 100 to 500 | 100 to 1000 | 40 to 60 | 1 to 10 | 20 to 40
12 | Cn1ncc2nc(-c3ccc4c(c3)CN(C3CCC(=O)NC3=O)C4=O)cc(CN3CCCC3)c21 (stereo not shown) [Example 310, 3-(5-(1-methyl-7-(pyrrolidin-1-ylmethyl)-1H-pyrazolo[4,3-b]pyridin-5-yl)-1-oxoisoindolin-2-yl) piperidine-2,6-dione] | 500 to 1000 | < 1 | > 80 | > 10000 | < 20
13 | O=C1CCC(N2Cc3cc(-c4cc(CN5CC(CO)C5)c5ccn(C6COC6)c5n4)ccc3C2=O)C(=O)N1 (stereo not shown) [Example 165, 3-(5-(4-((3-(hydroxymethyl)azetidin-1-yl)methyl)-1-(oxetan-3-yl)-1H-pyrrolo[2,3-b]pyridin-6-yl)-1-oxoisoindolin-2-yl) piperidine-2,6-dione] | 100 to 500 | 10 to 100 | 60 to 80 | > 10000 | < 20
14 | Cn1ccc2c(CN3CCN4CCCC4C3)cc(-c3ccc4c(c3)CN(C3CCC(=O)NC3=O)C4=O)nc21 (stereo not shown) [Example 95, 3-(5-(4-((hexahydropyrrolo[1,2-a]pyrazin-2 (1H)-yl)methyl)-1-methyl-1H-pyrrolo[2,3-b]pyridin-6-yl)-1-oxoisoindolin-2-yl) piperidine-2,6-dione] | 100 to 500 | 1 to 10 | 60 to 80 | > 10000 | < 20
15 | Cn1ccc2c(CN3CC4COCC4C3)cc(-c3ccc4c(c3)CN(C3CCC(=O)NC3=O)C4=O)nc21 (stereo not shown) [Example 63, 3-(5-(1-methyl-4-((tetrahydro-1H-furo[3,4-c]pyrrol-5 (3H)-yl)methyl)-1H-pyrrolo[2,3-b]pyridin-6-yl)-1-oxoisoindolin-2-yl) piperidine-2,6-dione] | 100 to 500 | < 1 | > 80 | > 10000 | 20 to 40
16 | O=C1CCC(N2Cc3cc(-c4cc(CN5CCC(O)CC5)c5ccn(C6CC6)c5n4)ccc3C2=O)C(=O)N1 (stereo not shown) [Example 159, 3-(5-(1-cyclopropyl-4-((4-hydroxypiperidin-1-yl)methyl)-1H-pyrrolo[2,3-b]pyridin-6-yl)-1-oxoisoindolin-2-yl) piperidine-2,6-dione] | 100 to 500 | 1 to 10 | 60 to 80 | 10 to 100 | 20 to 40
17 | O=C1CCC(N2Cc3cc(-c4cc(CN5CCCC5)c5c(ccn5C5CC5)n4)ccc3C2=O)C(=O)N1 (stereo not shown) [Example 174, 3-(5-(1-cyclopropyl-7-(pyrrolidin-1-ylmethyl)-1H-pyrrolo[3,2-b]pyridin-5-yl)-1-oxoisoindolin-2-yl) piperidine-2,6-dione] | 500 to 1000 | 1 to 10 | 60 to 80 | 10 to 100 | 20 to 40

Source: patent publication US20250214991A1 (Oncopia Therapeutics, Inc. d/b/a/ SK Life Science Labs, priority 2022, published 2025)
